For one assay, the target named is T1, Cyclooxygenase (Rattus norvegicus, UniProt Q63921).
T1 construct: host or cells: RBL-1
T1 sequence (Q63921 27-602): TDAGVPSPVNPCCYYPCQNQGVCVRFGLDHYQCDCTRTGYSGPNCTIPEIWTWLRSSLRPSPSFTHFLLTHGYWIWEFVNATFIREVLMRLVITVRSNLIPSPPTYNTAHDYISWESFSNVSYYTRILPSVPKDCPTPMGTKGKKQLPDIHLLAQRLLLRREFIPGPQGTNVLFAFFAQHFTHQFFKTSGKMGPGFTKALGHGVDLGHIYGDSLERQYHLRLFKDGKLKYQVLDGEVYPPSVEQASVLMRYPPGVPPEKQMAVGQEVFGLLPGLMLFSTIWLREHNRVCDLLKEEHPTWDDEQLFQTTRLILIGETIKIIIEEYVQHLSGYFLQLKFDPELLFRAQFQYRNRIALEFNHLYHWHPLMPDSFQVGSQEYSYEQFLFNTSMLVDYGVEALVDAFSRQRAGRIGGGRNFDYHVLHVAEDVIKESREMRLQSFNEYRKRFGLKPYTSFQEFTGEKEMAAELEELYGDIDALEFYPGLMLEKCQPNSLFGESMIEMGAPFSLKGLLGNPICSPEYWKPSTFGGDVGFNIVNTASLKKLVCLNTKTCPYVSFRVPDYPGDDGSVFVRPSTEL
The experiment in a line: ARBC whole cell cyclooxygenase assay (PGF2α formation in RBL-1 cells, A23187-stimulated). Format: cell-based. Conditions: RBL-1 whole cells; for inhibition at 10 µM: read-out: ARBC % inhibition of PGF2α at 10 μM (class symbol); for IC50: inhibition of PGF2α formation. How it is done: (§1) ARBL/ARBC Whole cell 5-lipoxygenase and Cyclooxygenase Aasays
(§2) The rat basophilic leukemia cell line (RBL-1) was obtained from the American Type Culture Collection (Rockville, Md.).
(§3) Radioimmunoassay (RIA) kits of LTB4 and PGF2α were obtained from Amersham (Arlington Heights, Ill.) and Seragen (Boston, Mass.), respectively.
(§4) RBL-1 cells are grown in suspension culture in Eagle's minimum essential medium supplemented with 12% fetal bovine serum at 37° C. in an incubator supplied with air-5% carbon dioxide. Cells are harvested by centrifugation. They are washed with cold phosphate buffered saline pH 7.4 (PBS; NaCl, 7.1 g; Na2 HPO4, 1.15 g; KH2 PO4, 0.2 g; and KCl, 0.2 g/L). Cells are finally suspended in PBS containing 1.0 mM calcium at a density of 2×10^6 cells/mL. Cells are incubated with and without test agent (in DMSO) (1% DMSO is without effect on arachidonic acid metabolism) for 10 minutes at room temperature. Calcium ionophore A23187 (5 μM) is added and cells are incubated for 7 minutes at 37° C. The reaction is stopped by chilling the tubes on ice for 10 minutes. Cells are separated by centrifugation and the supernatant is stored at -20° C. Aliquots (100 μL) are analyzed for LTB4 and PGF2α using radioimmunoassay kits as provided by the supplier.
(§5) Table 1 contains biochemical data obtained from this whole cell assay as IC5 s which are calculated as the amount of test compound causing 50% inhibition of LTB4 or PGF2α formation and the results of the CFE-2 assay.

Another assay deals with T2, 5-lipoxygenase (Rattus norvegicus, UniProt P12527).
T2 construct: host or cells: RBL-1
T2 sequence (P12527 1-673): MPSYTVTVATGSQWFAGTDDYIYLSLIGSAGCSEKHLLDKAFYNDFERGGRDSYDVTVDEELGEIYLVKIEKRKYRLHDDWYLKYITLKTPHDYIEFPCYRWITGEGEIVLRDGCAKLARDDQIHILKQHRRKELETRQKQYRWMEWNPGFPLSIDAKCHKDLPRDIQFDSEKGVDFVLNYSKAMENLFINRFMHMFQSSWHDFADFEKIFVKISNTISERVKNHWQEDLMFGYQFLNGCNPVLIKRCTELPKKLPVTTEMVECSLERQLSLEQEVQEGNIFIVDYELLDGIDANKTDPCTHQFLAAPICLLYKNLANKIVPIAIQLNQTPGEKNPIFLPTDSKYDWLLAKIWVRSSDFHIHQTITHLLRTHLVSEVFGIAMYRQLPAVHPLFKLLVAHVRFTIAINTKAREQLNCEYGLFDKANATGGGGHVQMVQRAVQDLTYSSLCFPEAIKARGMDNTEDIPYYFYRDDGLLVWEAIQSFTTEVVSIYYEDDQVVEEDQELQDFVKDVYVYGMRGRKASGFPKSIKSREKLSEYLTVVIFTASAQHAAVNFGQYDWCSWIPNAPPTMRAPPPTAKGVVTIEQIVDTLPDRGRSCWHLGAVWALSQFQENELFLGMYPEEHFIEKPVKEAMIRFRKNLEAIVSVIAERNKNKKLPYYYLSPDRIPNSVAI
The experiment in a line: ARBL whole cell 5-lipoxygenase assay (LTB4 formation in RBL-1 cells, A23187-stimulated). The class given is cell-based. Conditions: RBL-1 whole cells; for IC50: inhibition of LTB4 formation. How it is done: as §1, §2, §3, §4, §5

Assay [1] can be described thus: Carrageenan-Induced Rat Foot Paw Edema-2 (CFE-2) Assay. The class given is in vivo. As to conditions: dosed 1 hour before carrageenan, edema measured 5 hours after carrageenan. The protocol: Carrageenan-Induced Rat Foot Paw Edema-2 (CFE-2) Assay:Protocol
Carrageenan solution (1% w/v) is prepared by dissolving 100 mg carrageenan (Marine Colloidal Div., Springfield, N.J.) in 10 mL of sterile saline (0.9%) solution (Travenol). The solution is vortexed for 30 to 45 minutes. Animals are dosed with compound 1 hour before carrageenan challenge. Foot paw edema is induced by injecting 0.10 mL of the 1% carrageenan subcutaneously into the plantar portion of the right hind paw of each rat under light anesthesia. Initial foot paw volume is measured immediately following carrageenan challenge using mercury plethysmography (Buxco Electronics). Edema is measured 5 hours after carrageenan. The difference between the 5-hour and the initial paw volume is expressed as delta edema. The delta edema for each test group of animals is used to calculate the percent inhibition of edema achieved by the compound at the test dose compared with the vehicle control group. The ID40 (the dose at which swelling is inhibited by 40%) is calculated by probit analysis for the dose at which 40% inhibition occurs.
as §5

Like-named read-outs stand apart in the source and are kept apart here. Where only a bound is given, the exact number is not on record here.

As usually defined, the inhibition is the drop in the measured response relative to a control, in per cent. Turning to `Cc1ccc(Cl)c(Nc2ccccc2-c2nsc(N=C(N)N)n2)c1Cl` [Example 3, 3-[2-[(2,6-dichloro-3-methylphenyl)amino]phenyl]-1,2,4-thiadiazol-5-yl-guanidine], the inhibition at 10 µM was less than 40% at Cyclooxygenase and 100% on 5-lipoxygenase (read-out: ARBL % inhibition of LTB4 at 10 μM).

By IC50 is commonly meant the concentration that inhibits the measured activity by half. Lower therefore signals greater potency. As to `Cc1ccc(Cl)c(Nc2ccccc2-c2noc(=O)[nH]2)c1Cl` [Example 1, 3-[2-[(2,6-dichloro-3-methylphenyl)amino]phenyl]-1,2,4-oxadiazol-5(4H)-one], in assay [1], the “CFE Percent inhibition at 30 mg/kg” value is 58%. Moreover, the IC50 against Cyclooxygenase is 13 nM; on 5-lipoxygenase, 2300 nM.

For the molecule `Cc1ccc(Cl)c(Nc2ccccc2-c2nsc(NC#N)n2)c1Cl` [Example 4, 3-[2-[(2,6-Dichloro-3-methylphenyl)amino]phenyl]-1,2,4-thiadiazol-5-yl-cyanamide], the values for the IC50 at Cyclooxygenase and against 5-lipoxygenase were 1230 nM and 6150 nM, respectively.

Take `Cc1ccc(S(=O)(=O)c2nc(-c3ccccc3Nc3c(Cl)ccc(C)c3Cl)ns2)cc1` [Example 2, 2,6-Dichloro-3-methyl-N-[2-[5-[(4-methylphenyl)-sulfonyl]-1,2,4-thiadiazol-3-yl]phenyl]benzenamine]: the inhibition at 10 µM at Cyclooxygenase and at 5-lipoxygenase (read-out: ARBL % inhibition of LTB4 at 10 μM (class symbol)) was less than 40% in each case.

The values are drawn from patent publication US5114958A, “1,2,4-oxadiazole and 1,2,4-thiadiazole derivatives of fenamates as antiinflammatory agents” (Warner-Lambert Company, priority 1991, dated 1992).
